According to patent EP3815699A1, “NEW MEANS AND METHODS FOR THERAPY AND DIAGNOSIS OF […]” (Technische Universität München, priority 2019, dated 2021):
Entries after “also recorded” stand apart in the source; their conditions may differ. Read-outs that look alike come from different tables or passages of the source.

Tests used:
HAdV-C5 wt [1] = assay: Western blot of viral protein expression (Fig. 3C); assay type: cell-based; settings: 1 and 2µM ATO
HAdV-C5 wt [2] = assay: Quantitative RT-PCR of viral E1A and Hexon mRNA (Fig. 3B); assay type: cell-based; settings: 2µM ATO, 48h
H1299 cells = assay type: cell-based, Human; settings: lower panel
Procedure: (§1) • Figure 1: ATO efficiently reduces HAdV infectivity (cf. Example 1). H1299 cells were infected with HAdV-C5 wt at a multiplicity of 5 FFU/cell, treated with the depicted concentrations of ATO at 2 h.p.i., fixed 48 h.p.i. with 4 % PFA and double labeled with mAb B6-8 (α-E2A) and pAb L133 (α-Capsid). Primary antibodies were detected using Alexa488 (E2A, green) and Alexa568 (Capsid, red) conjugated secondary antibodies. (A) The number of E2A and Capsid expressing cells, respectively, was counted in n=40 overview pictures (not shown), normalized to untreated, infected cells, and represented in bar charts. Bar charts represent average values and standard deviations based on four independent experiments. (B) H1299 cells were infected with HAdV-C5 at a multiplicity of 20 FFU/cell, and treated with the depicted concentrations of ATO at 2 h.p.i.. Viral particles were harvested 48 h.p.i. and virus yield was determined by quantitative E2A immunofluorescence staining in 293 cells. Bar charts represent average values and standard deviations based on three independent experiments. Statistically significant differences were determined using a two-sided Welch's t-test. *: P ≤ 0.05, **: P ≤ 0.01, ***: P ≤ 0.001, ****: P ≤ 0.0001. • Figure 2: ATO induces a dose dependent reduction of HAdV infectivity with minor effects on cell viability (cf. Example 2). […] 24 or 48 h.p.i., cell viability was assessed using the Promega CellTiter-Blue Cell Viability Assay system, prior to fixation with 4 % PFA and cells were double labeled with mAb B6-8 (α-E2A) and pAb L133 (α-Capsid). Primary antibodies were detected using Alexa488 (E2A, green) and Alexa647 (Capsid, red) conjugated secondary antibodies. Fluorescence intensity was measured using a Tecan Infinite 200M plate reader using an excitation and emission wavelength of 488 and 520nm for Alexa488 and 640 and 670nm for Alexa647 respectively. Fluorescence intensity was normalized to untreated, infected cells at 48h p.i.. xy charts represent average values and standard deviations based on three independent experiments measured in triplicates. […]

HAdV-C5 = assay: Virus yield / progeny production by quantitative E2A immunofluorescence staining in 293 cells (Fig. 1B); assay type: cell-based
Procedure: as §1

HAdV-C5 wt [3] = assay: Tecan plate reader measurement of E2A and capsid immunofluorescence intensity in infected H1299 cells (Fig. 2A); assay type: cell-based
Procedure: • Figure 1: ATO efficiently reduces HAdV infectivity (cf. Example 1). H1299 cells were infected with HAdV-C5 wt at a multiplicity of 5 FFU/cell, treated with the depicted concentrations of ATO at 2 h.p.i., fixed 48 h.p.i. with 4 % PFA and double labeled with mAb B6-8 (α-E2A) and pAb L133 (α-Capsid). Primary antibodies were detected using Alexa488 (E2A, green) and Alexa568 (Capsid, red) conjugated secondary antibodies. (A) The number of E2A and Capsid expressing cells, respectively, was counted in n=40 overview pictures (not shown), normalized to untreated, infected cells, and represented in bar charts. Bar charts represent average values and standard deviations based on four independent experiments. (B) H1299 cells were infected with HAdV-C5 at a multiplicity of 20 FFU/cell, and treated with the depicted concentrations of ATO at 2 h.p.i.. Viral particles were harvested 48 h.p.i. and virus yield was determined by quantitative E2A immunofluorescence staining in 293 cells. Bar charts represent average values and standard deviations based on three independent experiments. Statistically significant differences were determined using a two-sided Welch's t-test. *: P ≤ 0.05, **: P ≤ 0.01, ***: P ≤ 0.001, ****: P ≤ 0.0001. • Figure 2: ATO induces a dose dependent reduction of HAdV infectivity with minor effects on cell viability (cf. Example 2). (A) H1299 cells were infected with HAdV-C5 wt at a multiplicity of 20 FFU/cell and treated with the depicted concentrations of ATO at 2 h.p.i.. 24 or 48 h.p.i., cell viability was assessed using the Promega CellTiter-Blue Cell Viability Assay system, prior to fixation with 4 % PFA and cells were double labeled with mAb B6-8 (α-E2A) and pAb L133 (α-Capsid). Primary antibodies were detected using Alexa488 (E2A, green) and Alexa647 (Capsid, red) conjugated secondary antibodies. Fluorescence intensity was measured using a Tecan Infinite 200M plate reader using an excitation and emission wavelength of 488 and 520nm for Alexa488 and 640 and 670nm for Alexa647 respectively. Fluorescence intensity was normalized to untreated, infected cells at 48h p.i.. xy charts represent average values and standard deviations based on three independent experiments measured in triplicates. (B) H1299 cells were infected with an HAdV-C5 delta E3 virus, encoding a CMV promoter driven eGFP expression cassette, at a multiplicity of 20FFU/cell and treated with the depicted concentrations of ATO at 2h p.i.; 24 or 48 h p.i. cell viability was assessed using the Promega CellTiter-Blue Cell Viability Assay system, and GFP fluorescence intensity was measured using a Tecan Infinite 200M plate reader using an excitation and emission wavelength of 488 and 520nm. Fluorescence intensity was normalized to untreated, infected cells at 48h p.i.; xy charts represent average values and standard deviations based on three independent experiments measured in triplicates. (C) H1299 cells were infected with an eGFP expressing HAdV-C5 based first generation adenoviral vector at a multiplicity of 20 FFU/cell and treated with the depicted concentrations of ATO at 2h p.i.; 24 or 48h p.i., cell viability was assessed using the Promega CellTiter-Blue Cell Viability Assay system, and GFP fluorescence intensity was measured using a Tecan Infinite 200M plate reader using an excitation and emission wavelength of 488 and 520nm. Fluorescence intensity was normalized to untreated, infected cells at 48h p..i.; xy charts represent average values and standard deviations based on three independent experiments measured in triplicates. (D) A549 cells were infected with an HAdV-C5 delta E3 virus, encoding a CMV promoter driven eGFP expression cassette, at a multiplicity of 20FFU/cell and treated with the depicted concentrations of ATO at 2h p.i.. GFP-fluorescence, as well as cell growth via phase contrast-imaging was assessed for 48 h with a 2h increment using an IncuCyte S3 Live-Cell Analysis System. […]

[4] = test system: HAdV-C5 delta E3 virus, encoding a CMV promoter driven eGFP expression cassette; assay: IncuCyte live-cell imaging, real-time kinetics of GFP expression (Fig. 2D); assay type: cell-based; settings: 60h p.i., A549 cells

Which “late capsid and capsid associated proteins” value (HAdV-C5 wt [1]) does the source give for arsenic trioxide [ATO] here?
The value was “decrease”.

And the “viral early and late protein synthesis” value (HAdV-C5 wt [1]; 48 h.p.i.)?
The value was “significantly impaired”.

What about the “inhibition of Hexon viral mRNA expression” value (HAdV-C5 wt [2]) of the same substance?
The value was 60%.

What about the “cellular cytotoxicity of ATO” value (H1299 cells; H1299 infected with HAdV-C5 wt, ATO 0-10 µM, Fig. 2A) of the same substance?
Its value is “no clear effect”.

What about the “cellular cytotoxicity of ATO” value (H1299 cells; H1299 infected with non-replicating eGFP vector, ATO 0-8µM, Fig. 2C) of the same substance?
Its value is “no clear effect”.

What about the “cellular cytotoxicity of ATO” value (H1299 cells; H1299 infected with replication competent HAdV-GFP, Fig. 2B) of the same substance?
Its value is “no clear effect”.

And the “reduction of virus yield” value (HAdV-C5; 1µM ATO, H1299, 20 FFU/cell, harvested 48 h.p.i.)?
The value was 80%.

What about the “virus particle synthesis / virus yield” value (HAdV-C5; 2µM ATO, compared to non-treated infected control cells) of the same substance?
The value was “abolished; also recorded: completely abolishing”.

And the “reduction in virus yield” value (HAdV-C5; ATO concentration not given)?
Its value is 80%.

What about the “reduction of capsid expression” value (HAdV-C5 wt [3]; 2µM ATO, 48h p.i.) of the same substance?
The value was 40%.

What about the “reduction of E2A protein expression” value (HAdV-C5 wt [3]; 4µM ATO, 24h p.i.) of the same substance?
Its value is “more than 50%”.

What about the “E2A expression compared to the untreated control” value (HAdV-C5 wt [3]; 4µM ATO, 24h p.i., Fig. 2A) of the same substance?
The value was “less than 50%”.

What about the “capsid detection / capsid expression” value (HAdV-C5 wt [3]; 4µM ATO, 48h p.i.) of the same substance?
The value was “complete loss”.

And the “E2A expression reduced to” value (HAdV-C5 wt [3]; 4µM ATO, 48h p.i., remaining expression)?
Its value is 60%.

What about the “HAdV E2A protein expression” value (HAdV-C5 wt [3]; 8µM ATO, 24h p.i., Fig. 2A) of the same substance?
The value was “completely block; also recorded: completely blocking”.

And the E2A expression (HAdV-C5 wt [3]; 8µM ATO, 48h p.i.)?
Its E2A expression is “not detectable; also recorded: completely blocking”.

What about the “reduction of E2A protein expression” value (HAdV-C5 wt [3]; 8µM ATO, 48h p.i.) of the same substance?
The value was “up to 60%”.

And the IC50 (HAdV-C5 wt [3]; 24h p.i., Fig. 2A, read-out: IC50 (E2A expression))?
Its IC50 is 1.91 µM.

What about the IC50 (HAdV-C5 wt [3]; 48h p.i., Fig. 2A, read-out: IC50 (E2A expression)) of the same substance?
The IC50 was 4.06 µM.

What about the IC50 (HAdV-C5 wt [3]; 48h p.i., Fig. 2A, read-out: IC50 (capsid expression)) of the same substance?
Its IC50 is 2.07 µM.

What about the “reduction of GFP expression / viral load over time” value [4] of the same substance?
The value was “four-fold”.
